# Measurements published in the METLIN SMRT retention time set (Domingo-Almenara et al. 2019).
# Experiment: gradient 5% acetonitrile 3 min, to 50% in 2 min, to 85% in 15 min, held 3 min, 100 µL/min
# Conditions: column: Zorbax Extend-C18 2.1 x 50 mm; eluents: water / acetonitrile, 0.1% formic acid
# How it was run: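 Over 3 months, pure standards in mixtures of ~100 molecules were run by HPLC coupled to a quadrupole time-of-flight mass spectrometer in positive and negative ionization mode. The column was a Zorbax Extend-C18 (2.1 × 50 mm, 1.8 μm) at 100 μL/min, eluted with water and acetonitrile each holding 0.1% formic acid, with 40 μL dead and 900 μL dwell volumes. Retention time was determined from adduct peaks chosen by software and checked manually.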
row,Compound,RP-LC retention time [s]
1,COc1ccc(-c2noc(Cc3nnc(-c4cccc(Br)c4)o3)n2)cc1,1100
2,CCCNC(=O)CCc1nc2ccccc2n(CC(=O)Nc2cccc(OC)c2)c1=O,757
3,C=C(C)COc1ccc2oc(C)c(C(=O)O)c2c1,879
4,O=C(Cn1cccc(-c2nc(-c3ccc(Br)cc3)no2)c1=O)N1CCCc2ccccc21,1070
5,CCc1nnc(-c2ccc3ccn(CC(=O)N4CCN(c5ccccn5)CC4)c3c2)o1,614
6,COc1ccc(C(CC(=O)NCCC(C)C)N2Cc3ccccc3C2=O)cc1OC (stereo not drawn),722
7,Cc1ccc(-c2noc(Cn3ccn(-c4cc(C)cc(C)c4)c(=O)c3=O)n2)cc1,612
8,O=C(NCCn1c(=O)n(Cc2ccc(F)cc2)c2cccnc21)c1ccc2c(c1)OCO2,778
9,Cn1cc(C(CNC(=O)Nc2cccc(Cl)c2)c2cccnc2)c2ccccc21 (stereo not drawn),756
10,COC(=O)c1ccc(N2C=C(C#N)S(=O)(=O)c3cc(F)ccc32)cc1,847
11,COc1cc(Br)cc(CC2C(=O)Nc3ccccc32)c1OC (stereo not drawn),932
12,COCCCNC(=O)Cn1cnc2onc(-c3ccc(Cl)cc3)c2c1=O,792
13,CC(C)C(=O)Nc1ccc(-n2cnc(C(=O)NCc3ccc(F)cc3)c2)nc1,753
14,O=C(Nc1ccc(OCc2nnc(-c3ccccc3)o2)cc1)c1n[nH]c2c1CCCC2,886
15,O=C(NC1(c2nc(-c3ccncc3)no2)CCCCC1)c1ccc2c(c1)OCO2,876
16,CCOc1ccc(NC(=O)Nc2nccn(-c3cccc(F)c3)c2=O)cc1,939
17,Clc1ccccc1CNc1nnc(-c2nc(C3CC3)no2)c2ccccc12,1010
18,CCOc1cccc(-c2noc(CN3C(=O)C(C)Oc4ccccc43)n2)c1 (stereo not drawn),1140
19,CCOC(=O)c1cnc(Nc2nc(-c3ccccc3)c3ccccc3n2)nc1C,876
20,Cc1ccc(C)c(-c2csc(NC(=O)COc3ccccc3)n2)c1,1150
21,Fc1ccc(-c2nnc(Cc3nc(-c4cccs4)no3)o2)cc1,926

row,Compound,RP-LC retention time [s]
1,COc1ccc(C(C)NC(=O)COc2ccc(NC(=O)C3CC3)cn2)cc1OC (stereo not drawn),689
2,Cc1nc(N2CCN(C(=O)Nc3cccc(C(F)(F)F)c3)CC2)cc(-n2cccn2)n1,947
3,O=C(Nc1ccc(F)c(Cl)c1)c1cc(=O)c(OCc2ccc(F)cc2)co1,899
4,O=C(NCCC1=CCCCC1)C(=O)NCC(O)c1ccc(C(F)(F)F)cc1 (stereo not drawn),949
5,COc1cc2c(cc1C(=O)NCCc1c[nH]c3ccccc13)OCCCO2,859
6,Cc1ccc(C)c(Nc2c(-c3ccc(Cl)cc3)nc3ncccn23)c1,954
7,CCCCN(C)c1ccc2nnc(CCc3nc(-c4cccc(C)c4)no3)n2n1,951
8,CCc1ccc(-c2cc(C(N)=O)[nH]n2)cc1,708
9,O=C(NCc1ccccn1)C1CCN(c2cc(Oc3ccccc3)ncn2)CC1,577
10,CCOC(=O)c1c(C)[nH]c(CCC(=O)Nc2ccc(F)cc2F)c1C,905
11,CCCCOc1ccc(-c2nc(C3CC(=O)N(c4ccc(Cl)cc4)C3)no2)cc1 (stereo not drawn),1350
12,CCn1cc(S(=O)(=O)NCCc2noc(-c3ccncc3)n2)cn1,645
13,COC(=O)c1cnc2nc(C)ccc2c1NCc1ccccc1,658
14,Cc1ccc2c(NC(=O)C(c3ccccc3)c3ccccc3)noc2n1,785
15,CN(C)c1ccc(-c2nc3cnccn3c2Nc2ccc(Cl)cc2)cc1,880
16,Cc1noc(C)c1S(=O)(=O)N1[C@H]2CC[C@@H]1c1cnc(-c3ccc(F)cc3)nc1C2,1060
17,CC(C)(C)C(O)CCNC(=O)NCc1ccc(F)cc1 (stereo not drawn),705
18,CNC(=O)C1=CCN(C(=O)c2ccc(F)cc2F)CC1,644
19,Cc1c(Cl)cccc1-n1ccn2cc(-c3ccc(F)cc3)nc2c1=O,896
20,CCc1nccn1Cc1noc(-c2cccc(C)c2)n1,658

# Now from value to compound:
row,RP-LC retention time [s],Compound
1,883,Cc1cccc(Oc2cc(N3CCC(C(=O)NCCCOC(C)C)CC3)ncn2)c1C
2,663,CC(=O)N1CCC(CC(=O)N2CCCCCCN(C)C(=O)[C@@H]3CCC[C@@H]32)CC1
3,793,CCN(Cc1cn(C)nc1C)C(=O)C1CN(C(=O)c2ccccc2)CC12CCCCC2 (stereo not drawn)
4,622,CCOc1ccc2ncc(C(=O)c3ccc(C)cc3)c(N3CCN(CC)CC3)c2c1
5,679,O=C(Cn1cnc2nc(N3CCC(C(=O)NC4CC4)CC3)sc2c1=O)Nc1cccc(Cl)c1
6,619,COc1cc(C(=O)N2CCN(c3cc(N4CCCC4)nc(C)n3)CC2)cc(OC)c1OC
7,612,O=C1Nc2cc(C(=O)N3CCN(Cc4ccccc4)CC3)ccc2N2CCCCC12 (stereo not drawn)
8,780,O=C(NC1CC1)c1ccc(OCC2CCN(C(=O)Cc3cccs3)CC2)cc1
9,869,Cc1ccc(N2CCC(NC(=O)Cc3ccccc3C)C2=O)cc1 (stereo not drawn)
10,607,COc1nccc(N2CCC(CC(=O)NCc3cccc(OC)c3OC)CC2)n1
11,822,CCOC(=O)c1oc2ccc(S(=O)(=O)N3CCCC(c4nn[nH]n4)C3)cc2c1C (stereo not drawn)
12,785,COc1ccc(S(=O)(=O)N2C[C@@H](F)C[C@H]2C(=O)N2CCCCC2)cc1Cl
13,792,Cn1nc(C(=O)NC2CCN(c3cc(-c4ccccc4)[nH]n3)CC2)c2ccccc21
14,1190,Cc1ccc(NS(=O)(=O)c2cc(-c3cc(C(F)(F)F)on3)sc2C)cc1Cl
15,941,CC(C)CN1CCCCc2cc(C(=O)NC3CCS(=O)(=O)C3)sc21 (stereo not drawn)
16,571,CCC(=O)NCc1nc2c(n1C)CN(S(=O)(=O)c1ccc(F)c(F)c1)CC2
17,675,CC1CCN(c2cc(-c3nccn3CC(=O)NC3CCCCC3)ccn2)CC1
18,658,CCN(CC)S(=O)(=O)c1ccc2c(c1)cc(C(=O)NCCC(C)N1CCCC1)n2C (stereo not drawn)
19,596,CC(C)CN1CCN(Cc2nc(-c3ccc(N4CCCCC4)nc3)no2)CC1
20,722,CC1(C)C(=O)Nc2ccc(S(=O)(=O)N3CCC(c4noc(-c5cccnc5)n4)C3)cc21 (stereo not drawn)
21,699,Cc1[nH]nc(-c2cc(S(=O)(=O)NCCc3ccc(S(N)(=O)=O)cc3)c(C)s2)c1C
22,892,Cc1ccc(N2C(=O)CN(S(C)(=O)=O)CC2(C)C(=O)NC2CCCCC2)cc1Cl (stereo not drawn)
23,930,CC(C)c1cccc(NC(=O)Cn2nc3c(N4CCSCC4)nccn3c2=O)c1
24,625,Cc1nn(-c2ccc(F)cc2)c(C)c1S(=O)(=O)N1CCC(C(=O)N2CCN(C)CC2)CC1

row,RP-LC retention time [s],Compound
1,842,CCc1ccc(CNC(=O)C2CCN(c3ncnc4c3oc3ccccc34)CC2)cc1
2,764,COc1ccc(N2C=C(C(=O)N3CCCC3)S(=O)(=O)c3ccccc32)cc1
3,904,Cn1c(=O)c(N2CCC(NC(=O)Nc3ccccc3Cl)CC2)nc2ccccc21
4,620,Cc1cc(C)c2[nH]c3c(c(=O)c2c1)CN(CC(=O)NCc1ccc2c(c1)OCO2)CC3
5,695,COc1ccc(OC)c(NC(=O)Cn2c(N3CCOCC3)nc(C)cc2=O)c1
6,899,CCC(C)NC(=O)c1cnn(-c2ccc(-c3nc(C4CC4)no3)cn2)c1C (stereo not drawn)
7,770,CCN1CCCn2cc(S(=O)(=O)Nc3cccc(Cl)c3)cc2C1=O
8,1060,CC1CC(C)CN(S(=O)(=O)N2CCCC(C(=O)NCc3ccc(F)cc3)C2)C1 (stereo not drawn)
9,587,Cc1cc(C)c2c(n1)SCC(=O)N2CC(=O)NCCCN(C)Cc1ccccc1
10,901,COc1ccc(S(=O)(=O)N2CCCC(C(=O)NC3CCCC3)C2)cc1C (stereo not drawn)
11,730,COCCCNC(=O)C1CCN(S(C)(=O)=O)c2cc(Cl)ccc2O1 (stereo not drawn)
12,865,Cc1ccc(N(C)S(=O)(=O)c2cc3n(c2)CCCN(C(C)C)C3=O)cc1
13,982,CSc1ccc(CCNC(=O)c2nnc(-c3ccc(S(=O)(=O)N4CCCC4)cc3)o2)cc1
14,787,CCCN1C(=O)c2c(C(=O)NCc3ccccc3F)ncn2CC1(C)C(=O)NC1CCCC1 (stereo not drawn)
15,744,CCOc1cc2c(cc1OCC)C1C(C(=O)NCCOC)c3ccccc3C(=O)N1CC2 (stereo not drawn)
16,935,CCc1ccc(C2=C(C)C(N3CCC(NC(=O)CCC(C)C)CC3)=NS2(=O)=O)cc1
17,1270,CCOC(=O)c1cc(C2CC2)nc2c1c(=O)n(Cc1cccc(C(F)(F)F)c1)c(=O)n2C
18,666,Cc1cccc(C)c1NC(=O)N(C)CC1CCOC1 (stereo not drawn)
19,1110,O=C(Nc1ccc(F)c(F)c1)C1CCN(c2nccnc2Sc2ccccc2)CC1
20,896,COc1ccc(OC)c(NC(=O)N2CCC3(CC2)N=C(c2ccc(C)c(C)c2)C(=O)N3)c1
21,903,Cc1ccc(N2CCC(NC(=O)Nc3ccc(F)cc3F)C2=O)cc1C (stereo not drawn)
22,587,CCCC(=O)Nc1ccc2nc(N3CCN(CC(=O)N4CCCCCC4)CC3)cc(C(=O)O)c2c1
23,808,CC(C)CNC(=O)NCCC1CCN(S(=O)(=O)c2ccccc2)CC1
